Where two headings read alike, the source gives them in different places.
System: P. falciparum K1
Assay: Blood-stage antiplasmodial evaluation (SYBR Green I fluorescence, 72 h)
Format: cell-based, Plasmodium falciparum
Details: for EC50: read-out: P. falciparum K1 EC50; for IC50: erythrocytic stage P. falciparum K1, read-out: IC50 (activity on Pf. K1)
Description: A K1 culture-adapted P. falciparum strain resistant to chloroquine, pyrimethamine, and proguanil was used in an in vitro culture. It was maintained in a continuous culture, as described previously by Trager and Jensen. Cultures were maintained in fresh A+ human erythrocytes at 2.5% hematocrit in a complete medium (RPMI 1640 with 25 mM HEPES, 25 mM NaHCO3, and 10% of A+ human serum) at 37 °C under a reduced O2 atmosphere (gas mixture: 10% O2, 5% CO2, and 85% N2). Parasitemia was maintained daily between 1 and 3%. The P. falciparum drug susceptibility test was carried out by comparing quantities of DNA in treated and control cultures of parasite in human erythrocytes, according to a SYBR Green I fluorescence-based method using a 96-well fluorescence plate reader. Compounds, previously dissolved in DMSO (final concentration less than 0.5% v/v), were incubated in a total assay volume of 200 μL (RPMI, 2% hematocrit and 0.4% parasitemia) for 72 h in a humidified atmosphere (10% O2 and 5% CO2) at 37 °C, in 96-well flat bottom plates. Duplicate assays were performed for each sample. After incubation, plates were frozen at […] for 24 h. Then, the frozen plates were thawed for 1 h at 37 °C. A total of 15 μL of each sample was transferred to 96-well flat-bottom non-sterile black plates (Greiner Bio-One, Kremsmünster, Austria) already containing 15 μL of the SYBR Green I lysis buffer (2X SYBR Green I, 20 mM Tris base pH 7.5, 20 mM EDTA, 0.008% w/v saponin, 0.08% w/v Triton X-100). Negative control treated by solvents (DMSO or H2O) and positive controls (chloroquine) were added to each set of experiments. Plates were incubated for 15 min at 37 °C and then read on a TECAN Infinite F-200 spectrophotometer with excitation and emission wavelengths at 485 and 535 nm, respectively. The concentrations of compounds required to induce a 50% decrease in parasite growth (EC50 K1) were calculated from three independent experiments.

[1] = Plasmodium falciparum, K1, 72 h, asexual blood stages, drug-resistant K1 strain, 72 h incubation, mean ± SD of three independent experiments
[2] = asexual blood stages, drug-resistant K1 strain, 72 h incubation, mean ± SD of three independent experiments

Molecule | EC50 [1] [µM] | other results
Cc1ccc(-c2cc3nc(NC(C)(C)C)nc(-c4ccccc4)c3s2)cc1 [Compound 11c, N-(tert-butyl)-4-phenyl-6-(p-tolyl)thieno[3,2-d]pyrimidin-2-amine] | > 25 | –
Cc1ccc(-c2cc3nc(NC(C)(C)C)nc(Sc4ccccc4)c3s2)cc1 [Compound 9a, N-(tert-butyl)-6-(p-tolyl)-4-(phenylthio)thieno[3,2-d]pyrimidin-2-amine] | 13.8 ± 1.7 | –
CCOc1nc(NC(C)(C)C)nc2cc(-c3ccc(C)cc3)sc12 [Compound 7b, N-(tert-butyl)-4-ethoxy-6-(p-tolyl)thieno[3,2-d]pyrimidin-2-amine] | 5.1 ± 1.3 | –
Cc1ccc(-c2cc3nc(NC(C)(C)C)ncc3s2)cc1 [Compound 13, N-(Tert-butyl)-6-(p-tolyl)thieno[3,2-d]pyrimidin-2-amine] | 26.1 ± 2.2 | P. falciparum K1 EC50 [2]: inactive
Cc1ccc(-c2cc3nc(NC(C)(C)C)nc(C#CCCO)c3s2)cc1 [Compound 12c, 4-[2-tert-butylamino-6-(4-methylphenyl)thieno[3,2-d]pyrimidin-4-yl]but-3-yn-1-ol] | 14.2 ± 2.8 | –
Cc1ccc(Sc2nc(NC(C)(C)C)nc3cc(-c4ccc(C)cc4)sc23)cc1 [Compound 9b, N-(tert-butyl)-6-(p-tolyl)-4-(p-tolylthio)thieno[3,2-d]pyrimidin-2-amine] | 16.4 ± 1.9 | –
Cc1ccc(Oc2nc(NC(C)(C)C)nc3cc(-c4ccc(C)cc4)sc23)cc1 [Compound 8b, N-(tert-butyl)-6-(p-tolyl)-4-(p-tolyloxy)thieno[3,2-d]pyrimidin-2-amine] | > 10 | –
N-(tert-butyl)-4-(1-methylhydrazinyl)-6-(p-tolyl)-3,4-dihydrothieno[3,2-d]pyrimidin-2-amine [Compound 10b] | – | EC50 [2]: 2.2 ± 0.3 µM; IC50: ~2000 nM
Cc1ccc(-c2cc3nc(NC(C)(C)C)nc(NC(C)C)c3s2)cc1 [Compound 10e, N^2-(tert-butyl)-N^4-isopropyl-6-(p-tolyl)thieno[3,2-d]pyrimidine-2,4-diamine] | 2.4 ± 1 | IC50 (Plasmodium falciparum): ~2000 nM
Cc1ccc(-c2cc3nc(NC(C)(C)C)nc(NN)c3s2)cc1 [Compound 10i, N-(tert-butyl)-4-hydrazino-6-(p-tolyl)thieno[3,2-d]pyrimidin-2-amine] | 2.2 ± 0.3 | IC50 (Plasmodium falciparum): ~2000 nM
Cc1ccc(-c2cc3nc(NC(C)(C)C)nc(C#Cc4ccccc4)c3s2)cc1 [Compound 12a, N-tert-butyl-6-(4-methylphenyl)-4-(phenylethynyl)thieno[3,2-d]pyrimidin-2-amine] | 20.1 ± 4.1 | –
Cc1ccc(-c2cc3nc(NC(C)(C)C)nc(-c4cccc(C)c4)c3s2)cc1 [Compound 11b, N-(tert-butyl)-4-(m-tolyl)-6-(p-tolyl)thieno[3,2-d]pyrimidin-2-amine] | > 31 | –
Cc1ccc(-c2cc3nc(NC(C)(C)C)nc(-c4cccnc4)c3s2)cc1 [Compound 11f, N-(tert-butyl)-4-(pyridin-3-yl)-6-(p-tolyl)thieno[3,2-d]pyrimidin-2-amine] | > 10 | –
COc1nc(NC(C)(C)C)nc2cc(-c3ccc(C)cc3)sc12 [Compound 7a, N-(tert-butyl)-4-methoxy-6-(p-tolyl)thieno[3,2-d]pyrimidin-2-amine] | 7.6 ± 0.9 | –
Cc1ccc(-c2cc3nc(NC(C)(C)C)nc(-c4ccc(C)cc4)c3s2)cc1 [Compound 11a, N-(tert-butyl)-4,6-di-p-tolylthieno[3,2-d]pyrimidin-2-amine] | > 31 | –
Cc1ccc(-c2cc3nc(NC(C)(C)C)nc(-c4ccsc4)c3s2)cc1 [Compound 11d, N-(tert-butyl)-4-(thiophen-3-yl)-6-(p-tolyl)thieno[3,2-d]pyrimidin-2-amine] | > 25 | –
Cc1ccc(-c2cc3nc(NC(C)(C)C)nc(Oc4ccccc4)c3s2)cc1 [Compound 8a, N-(tert-butyl)-4-phenoxy-6-(p-tolyl)thieno[3,2-d]pyrimidin-2-amine] | > 10 | –
Cc1ccc(-c2cc3nc(NC(C)(C)C)nc(C#CC4CC4)c3s2)cc1 [Compound 12b, N-tert-butyl-4-(cyclopropylethynyl)-6-(4-methylphenyl)thieno[3,2-d]pyrimidin-2-amine] | 15.7 ± 2.4 | –
